The assay has as its target T1, human recombinant aromatase (Homo sapiens, UniProt P11511).
T1 sequence (P11511 1-503): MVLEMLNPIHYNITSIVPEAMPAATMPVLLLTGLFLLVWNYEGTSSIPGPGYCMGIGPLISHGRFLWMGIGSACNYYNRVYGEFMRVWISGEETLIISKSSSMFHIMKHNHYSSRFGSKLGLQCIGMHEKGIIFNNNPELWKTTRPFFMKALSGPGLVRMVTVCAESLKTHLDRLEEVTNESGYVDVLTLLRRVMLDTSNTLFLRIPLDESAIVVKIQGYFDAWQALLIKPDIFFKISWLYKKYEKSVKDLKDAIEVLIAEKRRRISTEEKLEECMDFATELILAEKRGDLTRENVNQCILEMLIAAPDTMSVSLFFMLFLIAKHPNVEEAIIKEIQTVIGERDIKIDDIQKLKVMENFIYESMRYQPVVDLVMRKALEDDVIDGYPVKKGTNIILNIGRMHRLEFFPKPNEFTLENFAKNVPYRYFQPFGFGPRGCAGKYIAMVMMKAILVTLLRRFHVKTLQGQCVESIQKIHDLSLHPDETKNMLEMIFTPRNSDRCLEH
In words: Inhibitory assay against human recombinant aromatase (Human CYP19 + P450 Reductase SUPERSOMES, dibenzylfluorescein). The conditions noted are these: for aromatase inhibitory activity (in words): tested at 10, 30 and 100 µM (4, 6: 1, 3 and 10 µM); for pIC50: three determinations. The format is biochemical. An excerpt: Each value represents the mean ± the standard error (S.E.) of three determinations.
Dibenzylfluorescein (DBF) and Human CYP19 + P450 Reductase SUPERSOMES (human recombinant aromatase) were obtained from BD Biosciences (Heidelberg, Germany). The physical data were obtained by the following instruments: a Yanagimoto micro-melting point apparatus for melting points (uncorrected); a JASCO DIP-1000 digital polarimeter for Optical rotations; a Perkin-Elmer 1720X FTIR spectrophotometer for IR spectra; an Agilent-NMR-vnmrs600 for the ^1H and ^13C NMR spectra (^1H: 600 MHz; ^13C: 150 MHz) in CDCl3 with tetramethylsilane as the internal standard; a Hitachi M-4000H double-focusing mass spectrometer for EIMS (70 eV). Column chromatography was carried out by Silica gel (70–230 mesh, Merck, Darmstadt, Germany) and silica gel 60 (230–400 mesh, Nacalai Tesque, Inc., Kyoto, Japan). HPLC was performed by the following systems; system I: Cosmosil 5SL-II column (25 cm × 20 mm i.d.) (Nacalai Tesque, Inc.), hexane/EtOAc (5:1), 8.0 mL/min, 35 °C; system II: Shimpack PREP-ODS (25 cm × 20 mm i.d.) (Shimadzu corp., Kyoto, Japan), MeOH, 8.0 mL/min, 35 °C; system III: Cosmosil 5C18-MS-II column (25 cm × 20 mm i.d.) (Nacalai Tesque, Inc.), MeOH/H2O (95:5), flow rate, 4.0 mL/min, 35 °C; system IV: Cosmosil 5C18-MS-II column, MeOH/H2O (9:1), 4.0 mL/min, 35 °C.
Inhibitory assay against human recombinant aromatase was performed as described previously.

This note sets out measurements from article PMC5713445, “Ergostane-Type Sterols from King Trumpet Mushroom (Pleurotus eryngii) and Their Inhibitory Effects on Aromatase” (International Journal of Molecular Sciences, 2017).

pIC50: −log10 of the molar value. Some results are limits rather than exact numbers.

Consider “5α,6α-epoxyergost-8(14)-ene-3β,7α-diol [Compound 2]”, for which the “aromatase inhibitory activity (in words)” value is “weakly inhibited aromatase”.
Usually pIC50 stands for the negative decadic logarithm of the IC50, by convention in mol/L. Take `CC(C)[C@@H](C)/C=C/[C@@H](C)[C@H]1CC=C2C3=C(CC[C@@]21C)[C@@]1(C)CC[C@H](O)C[C@@]12O[C@H]2[C@@H]3O` [Compound 1, (22E)-5α,6α-epoxyergosta-8,14,22-triene-3β,7β-diol]: the pIC50 is 4.76.
The same measure, in the same setting: the same measure for `CC(C)[C@@H](C)/C=C/[C@@H](C)[C@H]1CC[C@H]2C3=CCC4C[C@@H](O)CC[C@]4(C)[C@H]3CC[C@]12C` (stereo partly drawn) [Compound 3, (22E)-Ergosta-7,22-dien-3β-ol]: 4.18.
Regarding `CC(C)[C@@H](C)/C=C/[C@@H](C)[C@H]1CC[C@H]2C3=CC=C4C[C@@H](O)CC[C@]4(C)[C@H]3CC[C@]12C` [Compound 4, (22E)-ergosta-5,7,22-trien-3β-ol], the “aromatase inhibitory activity (in words)” value is on record as “comparable aromatase inhibitory activities to aminoglutethimide” and the pIC50 is 5.09.
For the compound `CC(C)[C@@H](C)/C=C/[C@@H](C)[C@H]1CC[C@H]2c3ccc4c(c3CC[C@]12C)CC[C@H](O)C4` [Compound 5, (22E)-19-norergosta-5,7,9,22-tetraen-3β-ol], the pIC50 was 4.47.
As for `CO[C@@H]1C=C2[C@@H]3CC[C@H]([C@H](C)/C=C/[C@H](C)C(C)C)[C@@]3(C)CC[C@@H]2[C@@]2(C)CC[C@H](O)C[C@]12O` [Compound 6, (22E)-6β-methoxyergosta-7,22-diene-3β,5α-diol], the “aromatase inhibitory activity (in words)” value is listed as “comparable aromatase inhibitory activities to aminoglutethimide” and the pIC50 was 5.55.
The corresponding values for `CC(C)[C@@H](C)/C=C/[C@@H](C)[C@H]1CC[C@H]2C3=CC(=O)[C@@]4(O)C[C@@H](O)CC[C@]4(C)[C@@]3(O)CC[C@]12C` [Compound 7, (22E)-3β,5α,9α-trihydroxyergosta-7,22-dien-6-one] are “weakly inhibited aromatase” and below 4.00.
The corresponding values for `CC(C)[C@@H](C)/C=C/[C@@H](C)[C@H]1CC[C@H]2C3=CC(=O)[C@@]4(O)C[C@@H](O)CC[C@]4(C)[C@H]3CC[C@]12C` [Compound 8, (22E)-3β,5α-dihydroxyergosta-7,22-dien-6-one] are “weakly inhibited aromatase” and below 4.00.
Taken in the same sequence, the figures for `CC(C)[C@@H](C)/C=C/[C@@H](C)[C@H]1CC[C@@H]2[C@]1(C)CC[C@H]1[C@]23C=C[C@]2(C[C@@H](O)CC[C@]12C)OO3` [Compound 9, ergosterol peroxide] were “weakly inhibited aromatase” and below 4.00.
`CC(C)[C@@H](C)/C=C/[C@@H](C)[C@H]1CC[C@@H]2[C@]1(C)CC=C1[C@]23C=C[C@]2(C[C@@H](O)CC[C@]12C)OO3` [Compound 10, 9,11-dehydroergosterol peroxide]: the pIC50 was 4.49.
